Source: US20210101874A1, “MICROBIOCIDAL OXADIAZOLE DERIVATIVES” (SYNGENTA PARTICIPATIONS AG, priority 2017, published 2021)

Columns and labels:
[1] = tested on: Puccinia recondita f. sp. Tritici; assay: Puccinia recondita f. sp. tritici / wheat / leaf disc preventative (brown rust); format: in vivo; details: foliar, 200 ppm in the applied formulation, wheat leaf segments cv. Kanzler, inoculated 1 day after application, compared to untreated, assessed 7 to 9 days after application, read-out: disease control
Outline: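 Single evaluation 7–9 d after spraying: % disease control compared with untreated leaf segments. Protocol: cv. Kanzler segments, preventative spray at 200 ppm, spore inoculation at day 1, 19° C., 75% rh, 12 h light/12 h dark.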

[2] = tested on: Puccinia recondita f. sp. Tritici; assay: Puccinia recondita f. sp. tritici / wheat / leaf disc curative (brown rust); format: in vivo; details: foliar, 200 ppm in the applied formulation, wheat leaf segments cv. Kanzler, applied 1 day after inoculation, compared to untreated, assessed 6 to 8 days after application, read-out: disease control
Description: Leaf disks or leaf segments of various plant species are cut from plants grown in a greenhouse. The cut leaf disks or segments are placed in multiwell plates (24-well format) onto water agar. The leaf disks are sprayed with a test solution before (preventative) or after (curative) inoculation. Compounds to be tested are prepared as DMSO solutions (max. 10 mg/ml) which are diluted to the appropriate concentration with 0.025% Tween20 just before spraying. The inoculated leaf disks or segments are incubated under defined conditions (temperature, relative humidity, light, etc.) according to the respective test system. A single evaluation of disease level is carried out 3 to 14 days after inoculation, depending on the pathosystem. Percent disease control relative to the untreated check leaf disks or segments is then calculated.
Wheat leaf segments cv. Kanzler are placed on agar in multiwell plates (24-well format). The leaf segments are then inoculated with a spore suspension of the fungus. Plates were stored in darkness at 19° C. and 75% relative humidity. The formulated test compound diluted in water was applied 1 day after inoculation. The leaf segments were incubated at 19° C. and 75% relative humidity under a light regime of 12 hours light/12 hours darkness in a climate cabinet and the activity of a compound was assessed as percent disease control compared to untreated when an appropriate level of disease damage appears in untreated check leaf segments (6 to 8 days after application).
The following compounds at 200 ppm in the applied formulation give at least 80% disease control in this test when compared to untreated control leaf disks under the same conditions, which show extensive disease development.

[3] = tested on: Glomerella lagenarium (Colletotrichum lagenarium); assay: Glomerella lagenarium (Colletotrichum lagenarium) liquid culture / cucumber / preventative (anthracnose); format: cell-based; details: Colletotrichum orbiculare; 20 ppm in the applied formulation; conidia in PDB nutrient broth, 24° C.; 3 to 4 days after application; compared to untreated; read-out: disease control (inhibition of growth measured photometrically)
Outline: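 Test compound, diluted from DMSO, was mixed in microtiter wells with fungal conidia taken from cryogenic storage and suspended in PDB nutrient broth. After 3 to 4 days at 24 °C, photometric growth measurement gave antifungal activity as a percentage of the untreated control.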

COC(=O)CCS(=O)(=O)NCc1ccc(-c2noc(C(F)(F)F)n2)cc1 [Compound 2.8, methyl 3-[[4-[5-(trifluoromethyl)-1,2,4-oxadiazol-3-yl]phenyl]methyl-sulfamoyl] propanoate]
≥ 80%: pest or weed control at 200 ppm [1] | pest or weed control at 200 ppm [2] | inhibition at 20 ppm [3]

C=CCS(=O)(=O)NCc1ccc(-c2noc(C(F)(F)F)n2)cc1F [Compound 2.32, N-[[2-fluoro-4-[5-(trifluoromethyl)-1,2,4-oxadiazol-3-yl]phenyl]methyl] prop-2-ene-1-sulfonamide]
≥ 80%: pest or weed control at 200 ppm [1] | pest or weed control at 200 ppm [2] | inhibition at 20 ppm [3]

CCCS(=O)(=O)NCc1ccc(-c2noc(C(F)(F)F)n2)c(F)c1 [Compound 2.5, N-[[3-fluoro-4-[5-(trifluoromethyl)-1,2,4-oxadiazol-3-yl]phenyl]methyl] propane-1-sulfonamide]
≥ 80%: pest or weed control at 200 ppm [1] | pest or weed control at 200 ppm [2] | inhibition at 20 ppm [3]

CNS(=O)(=O)NCc1ccc(-c2noc(C(F)(F)F)n2)cc1 [Compound 2.14, N-(methylsulfamoyl)-1-[4-[5-(trifluoromethyl)-1,2,4-oxadiazol-3-yl]phenyl] methanamine]
≥ 80%: pest or weed control at 200 ppm [1] | pest or weed control at 200 ppm [2] | inhibition at 20 ppm [3]

C=CCS(=O)(=O)NCc1ccc(-c2noc(C(F)(F)F)n2)cc1 [Compound 2.7, N-[[4-[5-(trifluoromethyl)-1,2,4-oxadiazol-3-yl]phenyl]methyl] prop-2-ene-1-sulfonamide]
≥ 80%: pest or weed control at 200 ppm [1] | pest or weed control at 200 ppm [2] | inhibition at 20 ppm [3]

CN(Cc1ccc(-c2noc(C(F)(F)F)n2)cc1)S(=O)(=O)c1ccn(C)n1 [Compound 1.41, N,1-dimethyl-N-[[4-[5-(trifluoromethyl)-1,2,4-oxadiazol-3-yl]phenyl]methyl] pyrazole-3-sulfonamide]
≥ 80%: pest or weed control at 200 ppm [1] | pest or weed control at 200 ppm [2] | inhibition at 20 ppm [3]

COC(=O)CS(=O)(=O)N(Cc1ccc(-c2noc(C(F)(F)F)n2)cc1)C(C)C [Compound 1.85, methyl 2-[isopropyl-[[4-[5-(trifluoromethyl)-1,2,4-oxadiazol-3-yl]phenyl]methyl]sulfamoyl]acetate]
≥ 80%: pest or weed control at 200 ppm [1] | pest or weed control at 200 ppm [2] | inhibition at 20 ppm [3]

O=S(=O)(NCc1ccc(-c2noc(C(F)(F)F)n2)c(F)c1)N1CCCC1 [Compound 3.17, N-[[3-fluoro-4-[5-(trifluoromethyl)-1,2,4-oxadiazol-3-yl]phenyl]methyl] pyrrolidine-1-sulfonamide]
≥ 80%: pest or weed control at 200 ppm [1] | pest or weed control at 200 ppm [2] | inhibition at 20 ppm [3]

CNS(=O)(=O)NCc1ccc(-c2noc(C(F)(F)F)n2)c(F)c1 [Compound 2.28, 1-[3-fluoro-4-[5-(trifluoromethyl)-1,2,4-oxadiazol-3-yl]phenyl]-N-(methylsulfamoyl) methanamine]
≥ 80%: pest or weed control at 200 ppm [1] | pest or weed control at 200 ppm [2] | inhibition at 20 ppm [3]

CCN(Cc1ccc(-c2noc(C(F)(F)F)n2)cc1)S(=O)(=O)C1CC1 [Compound 1.33, N-ethyl-N-[[4-[5-(trifluoromethyl)-1,2,4-oxadiazol-3-yl]phenyl]methyl] cyclopropanesulfonamide]
≥ 80%: pest or weed control at 200 ppm [1] | pest or weed control at 200 ppm [2] | inhibition at 20 ppm [3]

CCCS(=O)(=O)N(C)Cc1ccc(-c2noc(C(F)(F)F)n2)cc1 [Compound 1.25, N-methyl-N-[[4-[5-(trifluoromethyl)-1,2,4-oxadiazol-3-yl]phenyl]methyl] propane-1-sulfonamide]
≥ 80%: pest or weed control at 200 ppm [1] | pest or weed control at 200 ppm [2] | inhibition at 20 ppm [3]

O=S(=O)(NCc1ccc(-c2noc(C(F)(F)F)n2)c(F)c1)C1CC1 [Compound 3.19, N-[[3-fluoro-4-[5-(trifluoromethyl)-1,2,4-oxadiazol-3-yl]phenyl]methyl] cyclopropanesulfon-amide]
≥ 80%: pest or weed control at 200 ppm [1] | pest or weed control at 200 ppm [2] | inhibition at 20 ppm [3]
